Data taken from ChEMBL document CHEMBL1153175, “Pyrazole derived from (+)-3-carene; a novel potent, selective scaffold for sphingosine-1-phosphate (S1P(1)) receptor agonists” (Bioorg Med Chem Lett, 2010).
The source made the active and inactive calls. The calls are words filed in the database; no cut-off is given here.

Key:
[1] = molecular target: T1, Sphingosine 1-phosphate receptor 1 (Homo sapiens, UniProt P21453); assay: Agonist activity at human SIP1 receptor expressed in CHO cells by [35S]GTPgammaS binding assay; format: functional, cell-based
[2] = molecular target: T2, Sphingosine 1-phosphate receptor 5 (Homo sapiens, UniProt Q9H228); assay: Agonist activity at human SIP5 receptor by [35S]GTPgammaS binding assay; format: functional
[3] = molecular target: T3, Sphingosine 1-phosphate receptor 4 (Homo sapiens) (UniProt O95977); assay: Agonist activity at human SIP4 receptor at 10 uM by [35S]GTPgammaS binding assay relative to S1P; format: functional
T3 sequence (whole entry): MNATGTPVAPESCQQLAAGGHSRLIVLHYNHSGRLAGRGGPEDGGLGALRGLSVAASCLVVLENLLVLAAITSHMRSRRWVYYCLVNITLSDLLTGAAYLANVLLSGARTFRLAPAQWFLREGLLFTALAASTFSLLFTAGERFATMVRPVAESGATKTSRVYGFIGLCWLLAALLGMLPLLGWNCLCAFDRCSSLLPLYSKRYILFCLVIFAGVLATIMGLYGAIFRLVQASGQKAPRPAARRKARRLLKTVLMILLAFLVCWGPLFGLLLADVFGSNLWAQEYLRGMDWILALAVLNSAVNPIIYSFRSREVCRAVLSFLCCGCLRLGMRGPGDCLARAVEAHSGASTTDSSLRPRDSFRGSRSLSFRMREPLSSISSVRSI

[4] = molecular target: T1, Sphingosine 1-phosphate receptor 1; settings: CHO, at 10 µM
Description: Agonist activity at human SIP1 receptor expressed in CHO cells at 10 uM by [35S]GTPgammaS binding assay relative to S1P

[5] = molecular target: T2, Sphingosine 1-phosphate receptor 5; assay: Agonist activity at human SIP5 receptor at 10 uM by [35S]GTPgammaS binding assay relative to S1P; format: functional
[6] = molecular target: T4, Sphingosine 1-phosphate receptor 3 (Homo sapiens, UniProt Q99500); assay: Agonist activity at human SIP3 receptor at 10 uM by [35S]GTPgammaS binding assay relative to S1P; format: functional
[7] = molecular target: T4, Sphingosine 1-phosphate receptor 3; assay: Agonist activity at human SIP3 receptor by [35S]GTPgammaS binding assay; format: functional
[8] = molecular target: T5, Sphingosine 1-phosphate receptor 4 (Homo sapiens, UniProt O95977); assay: Agonist activity at human SIP4 receptor by [35S]GTPgammaS binding assay; format: functional
T5 sequence (O95977 whole entry): T3 sequence (whole entry)

Homo sapiens [9] = species: Homo sapiens; assay: Selectivity ratio, EC50 for human S1P1 receptor over EC50 for human S1P5 receptor
Homo sapiens [10] = species: Homo sapiens; assay: Selectivity ratio, EC50 for human S1P1 receptor over EC50 for human S1P4 receptor
Rattus norvegicus [11] = assay: Reduction of lymphocytes count in Lewis rat blood at 3 mg/kg. po; format: functional, organism-based; set-up: dose 3 mg/kg
Rattus norvegicus [12] = assay: Reduction of lymphocytes count in Lewis rat blood at 0.3 mg/kg. iv; format: functional, organism-based; set-up: dose 0.3 mg/kg
[13] = Chemical stability at pH >7 assessed as half life; format: physicochemical

T4 sequence (Q99500 whole entry): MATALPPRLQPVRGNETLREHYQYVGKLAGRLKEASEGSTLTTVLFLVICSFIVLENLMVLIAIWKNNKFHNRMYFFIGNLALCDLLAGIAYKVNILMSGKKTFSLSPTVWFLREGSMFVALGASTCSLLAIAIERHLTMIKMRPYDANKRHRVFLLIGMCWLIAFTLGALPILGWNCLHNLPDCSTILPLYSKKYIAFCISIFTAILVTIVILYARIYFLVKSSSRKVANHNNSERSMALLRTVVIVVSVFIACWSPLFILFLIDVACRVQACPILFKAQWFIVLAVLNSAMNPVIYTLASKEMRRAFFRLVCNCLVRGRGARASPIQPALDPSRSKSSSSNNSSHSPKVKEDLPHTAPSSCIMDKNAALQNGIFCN
T1 sequence (P21453 whole entry): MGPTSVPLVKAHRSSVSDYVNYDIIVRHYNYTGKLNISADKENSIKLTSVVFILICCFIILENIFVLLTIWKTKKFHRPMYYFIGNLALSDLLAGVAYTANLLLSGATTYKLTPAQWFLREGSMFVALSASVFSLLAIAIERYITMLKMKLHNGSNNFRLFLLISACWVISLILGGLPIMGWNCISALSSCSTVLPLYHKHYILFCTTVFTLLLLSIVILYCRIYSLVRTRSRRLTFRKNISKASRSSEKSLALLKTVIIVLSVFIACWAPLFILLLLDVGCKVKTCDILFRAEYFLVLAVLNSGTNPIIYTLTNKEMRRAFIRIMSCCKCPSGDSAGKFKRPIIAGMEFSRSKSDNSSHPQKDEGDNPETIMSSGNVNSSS
T2 sequence (Q9H228 whole entry): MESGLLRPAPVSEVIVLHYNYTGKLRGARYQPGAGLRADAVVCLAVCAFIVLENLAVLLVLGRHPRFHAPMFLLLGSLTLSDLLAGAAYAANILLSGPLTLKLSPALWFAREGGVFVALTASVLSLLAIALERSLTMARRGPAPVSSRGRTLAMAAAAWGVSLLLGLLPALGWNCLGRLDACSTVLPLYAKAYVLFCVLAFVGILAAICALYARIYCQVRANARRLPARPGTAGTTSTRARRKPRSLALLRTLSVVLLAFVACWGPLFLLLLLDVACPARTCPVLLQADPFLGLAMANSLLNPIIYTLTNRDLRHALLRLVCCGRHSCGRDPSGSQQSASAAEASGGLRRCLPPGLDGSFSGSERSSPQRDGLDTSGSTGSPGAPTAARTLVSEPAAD

| Compound | EC50 [1] | EC50 [2] | Emax [3] | Emax [4] | Emax [5] | Emax [6] | EC50 [7] | EC50 [8] | Ratio EC50 (Homo sapiens [9]) | Ratio EC50 (Homo sapiens [10]) | Activity (Rattus norvegicus [11]) | Activity (Rattus norvegicus [12]) | half-life [13] |
| --- | --- | --- | --- | --- | --- | --- | --- | --- | --- | --- | --- | --- | --- |
| CCCCCCC(=O)n1nc(C)c2c1C[C@@H]1[C@H]2C1(C)C | > 10000 nM | > 10000 nM | -6% | 25% | 2% | 44% | > 10000 nM | > 10000 nM | – | – | – | – | – |
| Cc1nn(C(=O)/C=C/c2ccc(-c3ccccc3)cc2)c2c1[C@H]1[C@@H](C2)C1(C)C | 280 nM | > 10000 nM | 1% | 76% | 22% | 8% | > 10000 nM | > 10000 nM | – | – | – | – | – |
| Cc1nn(C(=O)/C=C/c2cccc3[nH]ccc23)c2c1[C@H]1[C@@H](C2)C1(C)C | 2 nM | 505 nM | 28% | 90% | 130% | 84% | 995 nM | 560 nM | 250 | 250 | inactive | inactive | – |
| Cc1nn(C(=O)/C=C/c2ccncc2)c2c1[C@H]1[C@@H](C2)C1(C)C | 7 nM | 130 nM | 32% | 92% | 93% | 83% | 345 nM | 100 nM | – | – | inactive | inactive | 3 h |
| Cc1nn(C(=O)/C=C/c2ccc(S(N)(=O)=O)cc2)c2c1[C@H]1[C@@H](C2)C1(C)C | 119 nM | > 10000 nM | -22% | 68% | 16% | 68% | > 1000 nM | > 10000 nM | – | – | – | – | – |
| Cc1nn(C(=O)/C=C/c2cccnc2)c2c1[C@H]1[C@@H](C2)C1(C)C | 17 nM | 345 nM | 30% | 90% | 87% | 61% | > 1000 nM | 100 nM | – | – | – | – | – |
| Cc1nn(S(=O)(=O)/C=C/c2ccccc2)c2c1[C@H]1[C@@H](C2)C1(C)C | > 10000 nM | > 10000 nM | -19% | 7% | -1% | -2% | > 10000 nM | > 10000 nM | – | – | – | – | – |
| Cc1nn(C(=O)/C=C/c2cccc(C(F)(F)F)c2)c2c1[C@H]1[C@@H](C2)C1(C)C | 26 nM | 325 nM | 17% | 65% | 56% | 46% | > 10000 nM | > 10000 nM | – | – | – | – | – |
| Cc1nn(C(=O)CCc2ccccc2)c2c1[C@H]1[C@@H](C2)C1(C)C | 86 nM | > 10000 nM | 0% | 55% | 26% | 38% | > 10000 nM | > 10000 nM | – | – | – | – | – |
| Cc1nn(C/C=C/c2ccccc2)c2c1[C@H]1[C@@H](C2)C1(C)C | > 10000 nM | > 10000 nM | 10% | 45% | 10% | 14% | > 10000 nM | > 10000 nM | – | – | – | – | – |
| COc1ccc(/C=C/C(=O)n2nc(C)c3c2C[C@@H]2[C@H]3C2(C)C)cc1OC | 25 nM | 900 nM | 30% | 89% | 80% | 46% | > 10000 nM | > 10000 nM | – | – | – | – | – |
| Cc1nn(C(=O)/C=C/c2cccc(S(N)(=O)=O)c2)c2c1[C@H]1[C@@H](C2)C1(C)C | 11 nM | 82 nM | 21% | 92% | 76% | 84% | 1350 nM | 116 nM | – | – | – | – | – |
| Cc1nn(C(=O)/C=C/C2CCCCC2)c2c1[C@H]1[C@@H](C2)C1(C)C | > 10000 nM | > 10000 nM | 15% | 18% | 29% | 3% | > 10000 nM | > 10000 nM | – | – | – | – | – |
| Cc1nn(C(=O)/C=C/c2ccccc2Cl)c2c1[C@H]1[C@@H](C2)C1(C)C | 16 nM | > 10000 nM | -19% | 89% | -19% | 69% | > 1000 nM | > 10000 nM | – | – | – | – | – |
| Cc1nn(C(=O)/C=C/c2ccccc2)c2c1[C@H]1[C@@H](C2)C1(C)C | – | 1760 nM | -2% | – | 90% | 94% | > 1000 nM | > 10000 nM | – | – | – | – | – |
